Test results as given in BindingDB's records for patent US10723705 (Incyte, 2020).

Molecular target: T1, Histone deacetylase 8 (Homo sapiens, UniProt Q9BY41)
T1 sequence (Q9BY41 whole entry): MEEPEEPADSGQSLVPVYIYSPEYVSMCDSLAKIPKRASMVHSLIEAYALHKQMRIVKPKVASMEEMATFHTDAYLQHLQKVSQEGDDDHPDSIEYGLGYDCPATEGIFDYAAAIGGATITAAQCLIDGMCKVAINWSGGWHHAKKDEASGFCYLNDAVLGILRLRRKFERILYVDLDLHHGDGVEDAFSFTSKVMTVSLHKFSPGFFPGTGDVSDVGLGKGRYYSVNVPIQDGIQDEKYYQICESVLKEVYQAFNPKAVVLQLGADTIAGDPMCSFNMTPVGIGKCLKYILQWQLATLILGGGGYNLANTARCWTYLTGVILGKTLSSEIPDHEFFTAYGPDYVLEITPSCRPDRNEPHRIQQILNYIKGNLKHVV
Assay: Enzymatic Assay
Protocol: HDAC-Glo I/II Assay Kit was purchased from Promega Corporation (Madison, Wis.), including the following components: HDAC-Glo I/II Buffer (25 mM Tris buffer, pH 8.0, supplemented with 137 mM: NaCl, 2.7 mM KCl, 1% v/v Triton X-100 and 1 mM: MgCl2), luminogenic substrates Boc-GAK(Ac)-aminoluciferin (HDAC-Glo I/II substrate), proprietary developer reagent (containing trypsin). Assay:The HDAC8 reaction was performed at room temperature in white 384-well polystyrene, flat-bottom microtiter plate (Greiner Bio-one, Monroe, N.C.) in a final volume of 20 μL. Test compounds were first diluted serially in DMSO and 100 nL were transferred to the plate wells by Echo 550 (Labcyte, Sunnyvale, Calif.) before the addition of other reaction components. The final concentration of DMSO in the assay was 0.5%. The HDAC-Glo I/II assay reagent was prepared by rehydration of lyophilized HDAC-Glo I/II substrate in 10 mL. HDAC-Glo I/II assay buffer followed with the addition of 10 μL of developer reagent. 10 uL of 3 nM HDAC8 in the HDAC-Glo I/II assay buffer were first dispensed into the microliter plate containing the compounds and incubated at room temperature for 30 min. The reactions were initiated with the addition of 10 uL HDAC-Glo I/II assay reagent with Multidrop.

IC50, in the range around 375 nM:
O=C(NO)C(Cc1ccccc1)N1C=CC2C(Cl)=NC=CC21 (stereo not drawn) [US10723705, No. I-0196]
O=C(NO)C(Cc1ccccc1)N1N=CC2C(Cl)=NC=CC21 (stereo not drawn) [US10723705, No. I-0055]
O=C(NO)C(Cc1ccccc1)N1C=CC2C=C(Cl)C=NC21 (stereo not drawn) [US10723705, No. I-0195]
